Experimental data reported in patent publication US7217722B2 (Kirin Beer Kabushiki Kaisha, priority 2000, dated 2007).

These compounds were tested against Rho kinase (fused protein of bovine Rho kinase catalyst region and glutathione S-transferase) (Bos taurus, UniProt Q28021) (assay: Rho kinase inhibitory activity (phosphorylation of S6 231–239 substrate, γ32P-ATP)). Details: concentration inhibiting substrate phosphorylation by 50%.
Type: biochemical
Description: This permits the substrate to be labeled with the radioisotope.
Thereafter, the substrate was adsorbed to a filter paper. ATP was washed away with a phosphoric acid solution, and the amount of the phosphorylated substrate was then measured with a liquid scintillation counter.

Chain of Rho kinase (fused protein of bovine Rho kinase catalyst region and glutathione S-transferase) (Q28021 92-354 limits assumed): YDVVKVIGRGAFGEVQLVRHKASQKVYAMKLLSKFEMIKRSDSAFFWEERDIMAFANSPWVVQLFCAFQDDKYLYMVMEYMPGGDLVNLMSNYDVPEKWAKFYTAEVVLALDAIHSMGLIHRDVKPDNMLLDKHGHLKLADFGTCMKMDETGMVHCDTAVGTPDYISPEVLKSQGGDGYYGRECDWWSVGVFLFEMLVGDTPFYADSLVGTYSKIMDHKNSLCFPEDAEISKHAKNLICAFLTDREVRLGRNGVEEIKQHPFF

| SMILES | IC50 [nM] |
| --- | --- |
| O=C(NCc1c(Cl)ccc(Cl)c1Cl)Nc1ccc2[nH]ncc2c1 [Example 101, N-(1H-5-Indazolyl)-N′-(2,3,6-trichloro-benzyl)urea] | 1800 |
| O=C(NCc1c(F)cc(F)cc1F)Nc1ccc2[nH]ncc2c1 [Example 103, N-(1H-5-Indazolyl)-N′-(2,4,6-trifluorobenzyl)urea] | 260 |
| O=C(NCc1ccccc1Cl)Nc1ccc2[nH]ncc2c1 [Example 104, N-(2-Chlorobenzyl)-N′-(1H-5-indazolyl)urea] | 240 |
| O=C(NCC1CCCCC1)Nc1ccc2[nH]ncc2c1 [Example 105, N-Cyclohexylmethyl-N′-(1H-5-indazolyl)urea] | 390 |
| O=C(NCc1c(Cl)cccc1Cl)Nc1ccc2[nH]ncc2c1 [Example 106, N-(2,6-Dichlorobenzyl)-N′-(1H-5-indazolyl)urea] | 1400 |
| O=C(NCc1cccc2ccccc12)Nc1ccc2[nH]ncc2c1 [Example 107, N-(1H-5-Indazolyl)-N′-(1-naphthylmethyl)urea] | 470 |
| O=C(NCc1c(F)ccc(F)c1F)Nc1ccncc1 [Example 108, N-(Pyridyl)-N′-(2,3,6-trifluorobenzyl)urea] | 3800 |
| O=C(NCc1c(F)ccc(F)c1F)Nc1ccc2c(c1)C(=O)NC2=O [Example 109, N-(1,3-Dioxo-2,3-dihydro-1H-5-isoindolyl)-N′-(2,3,6-trifluorobenzyl)urea] | 161 |
| O=C(NCc1c(F)ccc(F)c1F)Nc1ccc2[nH]ncc2c1 [Example 110, N-(1H-5-Indazolyl)-N′-(2,3,6-trifluorobenzyl)urea] | 195 |
| O=C(NCc1cccc([N+](=O)[O-])c1)Nc1ccncc1 [Example 111, N-(3-Nitrobenzyl)-N′-(4-pyridyl)urea] | 1770 |
| Nc1cccc(CNC(=O)Nc2ccc3c(c2)C(=O)NC3=O)c1 [Example 112, N-(3-Aminobenzyl)-N′-(1,3-dioxo-2,3-dihydro-1H-5-isoindolyl)urea] | 310 |
| COc1cc(CNC(=O)Nc2ccc3[nH]ncc3c2)ccc1O [Example 113, N-(4-Hydroxy-3-methoxybenzyl)-N′-(1H-5-indazolyl)urea] | 492 |
| Clc1ccc(CN2CCC(Nc3ccc4[nH]ncc4c3)CC2)cc1Cl [Example 114, N-[1-(3,4-Dichlorobenzyl)-4-piperidyl]-N-(1H-5-indazolyl)amine] | 329 |
| Cc1ccc(CN2CCC(Nc3ccc4[nH]ncc4c3)CC2)cc1C [Example 115, N-[1-(3,4-Dimethylbenzyl)-4-piperidyl]-N-(1H-5-indazolyl)amine] | 372 |
| c1ccc2cc(CN3CCC(Nc4ccc5[nH]ncc5c4)CC3)ccc2c1 [Example 116, N-(1H-5-Indazolyl)-N-[1-(2-naphthylmethyl)-4-piperidyl]amine] | 136 |
| Fc1cccc(CN2CCC(Nc3ccc4[nH]ncc4c3)CC2)c1 [Example 117, N-[1-(3-Fluorobenzyl)-4-piperidyl]-N-(1H-5-indazolyl)amine] | 317 |
| FC(F)(F)c1ccc(CN2CCC(Nc3ccc4[nH]ncc4c3)CC2)cc1 [Example 118, N-(1H-5-Indazolyl)-N-{1-[4-(trifluoromethyl)benzyl]-4-piperidyl}amine] | 275 |
| COc1cccc(CN2CCC(Nc3ccc4[nH]ncc4c3)CC2)c1 [Example 119, N-(1H-5-Indazolyl)-N-[1-(3-methoxybenzyl)-4-piperidyl]amine] | 383 |
| CCc1ccc(CN2CCC(Nc3ccc4[nH]ncc4c3)CC2)cc1 [Example 120, N-[1-(4-Ethylbenzyl)-4-piperidyl]-N-(1H-5-indazolyl)amine] | 241 |
| CCc1ccccc1CN1CCC(Nc2ccc3[nH]ncc3c2)CC1 [Example 121, N-[1-(2-Ethylbenzyl)-4-piperidyl]-N-(1H-5-indazolyl)amine] | 513 |
| CC(C)c1ccc(CN2CCC(Nc3ccc4[nH]ncc4c3)CC2)cc1 [Example 122, N-(1H-5-Indazolyl)-N-[1-(4-isopropylbenzyl)-4-piperidyl]amine] | 309 |
| c1ccc(Oc2cccc(CN3CCC(Nc4ccc5[nH]ncc5c4)CC3)c2)cc1 [Example 123, N-(1H-5-Indazolyl)-N-[1-(3-phenoxybenzyl)-4-piperidyl]amine] | 220 |
| Cc1ccc(CN2CCC(Nc3ccc4[nH]ncc4c3)CC2)cc1[N+](=O)[O-] [Example 124] | 238 |
| CCN1CCC(Nc2ccc3[nH]ncc3c2)CC1 [Example 125, N-(1-Ethyl-4-piperidyl)-N-(1H-5-indazolyl)-amine] | 747 |
| c1cc2[nH]ncc2cc1NC1CCCCC1 [Example 129, N-Cyclohexyl-N-(1H-5-indazolyl)amine] | 670 |
| c1ccc(CCN2CCC(Nc3ccc4[nH]ncc4c3)CC2)cc1 [Example 130, N-(1H-5-Indazolyl)-N-(1-phenethyl-4-piperidyl)amine] | 457 |

| SMILES | IC50 [nM] |
| --- | --- |
| c1cncc(CN2CCC(Nc3ccc4[nH]ncc4c3)CC2)c1 [Example 132, N-(1H-5-Indazolyl)-N-[1-(3-pyridylmethyl)-4-piperidyl]amine] | 603 |
| c1cc(CN2CCC(Nc3ccc4[nH]ncc4c3)CC2)ccn1 [Example 133, N-(1H-5-Indazolyl)-N-[1-(4-pyridylmethyl)-4-piperidyl]amine] | 680 |
| Clc1ccccc1CN1CCC(Nc2ccc3[nH]ncc3c2)CC1 [Example 134, N-[1-(2-Chlorobenzyl)-4-piperidyl]-N-(1H-5-indazolyl)amine] | 436 |
| Clc1cccc(CN2CCC(Nc3ccc4[nH]ncc4c3)CC2)c1 [Example 135, N-[1-(3-Chlorobenzyl)-4-piperidyl]-N-(1H-5-indazolyl)amine] | 285 |
| Fc1ccc(CN2CCC(Nc3ccc4[nH]ncc4c3)CC2)cc1 [Example 137, N-[1-(4-Fluorobenzyl)-4-piperidyl]-N-(1H-5-indazolyl)amine] | 478 |
| COc1ccc(CN2CCC(Nc3ccc4[nH]ncc4c3)CC2)cc1 [Example 138, N-(1H-5-Indazolyl)-N-[1-(4-methoxybenzyl)-4-piperidyl]amine] | 355 |
| Cc1ccc(CN2CCC(Nc3ccc4[nH]ncc4c3)CC2)cc1 [Example 139, N-(1H-5-Indazolyl)-N-[1-(4-methylbenzyl)-4-piperidyl]amine] | 250 |
| O=[N+]([O-])c1cccc(CN2CCC(Nc3ccc4[nH]ncc4c3)CC2)c1 [Example 140, N-(1H-5-Indazolyl)-N-[1-(3-nitrobenzyl)-4-piperidyl]amine] | 465 |
| O=[N+]([O-])c1ccc(CN2CCC(Nc3ccc4[nH]ncc4c3)CC2)cc1 [Example 141, N-(1H-5-Indazolyl)-N-[1-(4-nitrobenzyl)-4-piperidyl]amine] | 661 |
| c1ccc(COc2ccc(CN3CCC(Nc4ccc5[nH]ncc5c4)CC3)cc2)cc1 [Example 142, N-{1-[4-(Benzyloxy)benzyl]-4-piperidyl}-N-(1H-5-indazolyl)amine] | 655 |
| COc1cc(CN2CCC(Nc3ccc4[nH]ncc4c3)CC2)cc(OC)c1 [Example 143, N-[1-(3,5-Dimethoxybenzyl)-4-piperidyl]-N-(1H-5-indazolyl)amine] | 399 |
| Clc1cc2c(cc1CN1CCC(Nc3ccc4[nH]ncc4c3)CC1)OCO2 [Example 144, N-{1-[(6-Chloro-1,3-benzodioxol-5-yl)methyl]-4-piperidyl}-N-(1H-5-indazolyl)amine] | 453 |
| Oc1ccc(CN2CCC(Nc3ccc4[nH]ncc4c3)CC2)cc1 [Example 145, 4-{[4-(1H-5-Indazolylamino)piperidino]methyl}phenol] | 290 |
| COC(=O)c1cccc(CN2CCC(Nc3ccc4[nH]ncc4c3)CC2)c1 [Example 147, Methyl 3-{[4-(1H-5-indazolylamino)piperidino]methyl}benzoate] | 462 |
| COC(=O)c1ccc(CN2CCC(Nc3ccc4[nH]ncc4c3)CC2)cc1 [Example 148, Methyl 4-{[4-(1H-5-indazolylamino)piperidino]methyl}benzoate] | 166 |
| CC(=O)Oc1ccc(CN2CCC(Nc3ccc4[nH]ncc4c3)CC2)cc1 [Example 149, 4-{[4-(1H-5-Indazolylamino)piperidino]methyl}phenyl acetate] | 204 |
| Fc1cccc(Cl)c1CN1CCC(Nc2ccc3[nH]ncc3c2)CC1 [Example 150, N-[1-(2-Chloro-6-fluorobenzyl)-4-piperidyl]-N-(1H-5-indazolyl)amine] | 821 |
| Clc1ccccc1CN1CCC(Nc2ccc3[nH]ncc3c2)C1 (stereo not drawn) [Example 151, N-[1-(2-Chlorobenzyl)tetrahydro-1H-3-pyrrolyl]-N-(1H-5-indazolyl)amine] | 45 |
| Fc1ccc(CN2CCC(Nc3ccc4[nH]ncc4c3)C2)cc1 (stereo not drawn) [Example 154, N-[1-(4-Fluorobenzyl)tetrahydro-1H-3-pyrrolyl]-N-(1H-5-indazolyl)amine] | 84 |
| Brc1ccc(CN2CCC(Nc3ccc4[nH]ncc4c3)C2)cc1 (stereo not drawn) [Example 155, N-[1-(4-Bromobenzyl)tetrahydro-1H-3-pyrrolyl]-N-(1H-5-indazolyl)amine] | 24 |
| COc1ccc(CN2CCC(Nc3ccc4[nH]ncc4c3)C2)cc1 (stereo not drawn) [Example 156, N-(1H-5-Indazolyl)-N-[1-(4-methoxybenzyl)tetrahydro-1H-3-pyrrolyl]amine] | 2 |
| Cc1ccc(CN2CCC(Nc3ccc4[nH]ncc4c3)C2)cc1 (stereo not drawn) [Example 157, N-(1H-5-Indazolyl)-N-[1-(4-methylbenzyl)tetrahydro-1H-3-pyrrolyl]amine] | 22 |
| O=[N+]([O-])c1cccc(CN2CCC(Nc3ccc4[nH]ncc4c3)C2)c1 (stereo not drawn) [Example 158, N-(1H-5-Indazolyl)-N-[1-(3-nitrobenzyl)tetrahydro-1H-3-pyrrolyl]amine] | 5 |
| O=[N+]([O-])c1ccc(CN2CCC(Nc3ccc4[nH]ncc4c3)C2)cc1 (stereo not drawn) [Example 159, N-(1H-5-Indazolyl)-N-[1-(4-nitrobenzyl)tetrahydro-1H-3-pyrrolyl]amine] | 12 |
| COc1cc(CN2CCC(Nc3ccc4[nH]ncc4c3)C2)cc(OC)c1 (stereo not drawn) [Example 160, N-[1-(3,5-Dimethoxybenzyl)tetrahydro-1H-3-pyrrolyl]-N-(1H-5-indazolyl)amine] | 1 |
